From patent US20250082649A1, “ALTERATION OF NUTRIENT PREFERENCES VIA MODULATION OF NUTRIENT RECEPTORS IN THE GUT” (The Trustees of Columbia University in the City of New York, priority 2022, published 2025)
“Also recorded” adds a separate entry of the source.

Experiments:
mice = test: Brief-access (30 min) two-bottle tests, immediate attraction; format: in vivo; conditions: 30 min two-bottle test, 3 mM AceK or 1.5% Intralipid, n=9 mice
Procedure: Two-bottle preference assays. No behavioral experiments, including the short-term assays for taste responses, or the 48 h tests examining the development of sugar or fat preference used water-restricted or food-deprived mice. Mice were given ad libitum access to food and water for several days prior to the behavioral tests; any food or water restriction would severely affect the mice's behavior in preference or taste responses. Development of fat preference: mice were first tested for their initial preference between 1.5% Intralipid and 3 mM AceK (pre testing) by completing 100 drinking trials. Each trial was initiated by the first lick and lasted for 5 s; the drinking ports then re-opened after 30 s of inter-trial interval. Next, mice were exposed to 500 licks to both 1.5% Intralipid and 3 mM AceK; this was repeated twice. […] The pre and post-preference indexes were calculated by dividing the number of licks to fat by the total lick count during the first 2-4 h (100 trials) of baseline measurements (pre) and during the last 2-4 h (100 trials) of the behavioural session (post), respectively. […] The ‘pre’ preference index was calculated as the number of licks to fat divided by the total lick count during the first 4 h; the “post” preference index was calculated as the number of licks to fat divided by the total lick count during the last 4 h of the session. […]

vagal sensory neurons = test: Vagal calcium imaging (nodose ganglion, GCaMP6s) with intestinal delivery of stimuli; format: in vivo, mice; conditions: for responding vagal neurons of imaged neurons: intestinal delivery, 10% fatty acid or pre-digested Intralipid, FIG. 10E-10I stimuli interleaved with 10% LA (10 s)
Procedure: To directly examine and monitor the fat responses of vagal sensory neurons, functional imaging of the nodose ganglion (which contains the cell bodies of vagal neurons) was performed. The genetically encoded activity sensor GCaMP6s was targeted to vagal sensory neurons using Vglut2-Cre animals, and a one-photon calcium imaging set-up was used coupled to synchronous intestinal delivery of fat, sugar and other stimuli to record neuronal responses in vivo, with real time kinetics (FIG. 2E, FIG. 10A, FIG. 10B, FIG. 10C). To administer the stimuli, a catheter was placed into the duodenal bulb, and an exit port was created by transecting the intestine 10 cm distally. During each imaging session, the intestine was exposed to a pre-stimulus application of PBS, a 10 s or 60 s exposure to the test stimulus, and a 200 s post-stimulus wash; this regime was repeated at least 3 times for each stimulus.
Fat, sugar and amino acid intestinal stimulation. Stimuli for nodose imaging experiments were as follows. Sugar: 500 mM glucose. Amino acids: a mix consisting of 50 mM methionine, 50 mM serine, 50 mM alanine, 50 mM glutamine and 50 mM cysteine dissolved in PBS. Fat: 10% linoleic acid, 10% linolenic acid, 10% hexanoic acid, 10% DHA, 10% oleic acid, diluted in PBS containing 0.1% xanthan gum and 0.05% Tween 80, and vortexed for a minimum of 10 min. Vehicle control: 0.1% xanthan gum and 0.05% Tween 80. For sugar and fat intestinal stimulation in imaging experiments, a 10 s window of stimulation was used; for amino acids, a 60 s stimulus was used, as lower concentrations of each in the mix of several amino acids was used (see above). Note that if using Intralipid mix (a 20% soy bean oil emulsion, Santa Cruz) for nodose imaging experiments (rather than consumption where it would be naturally digested and broken down into short, medium and long chain fatty acids), the material was pre-digested with lipases (mimicking its natural course of action upon ingestion). […] Intralipid was incubated with 4 mg/ml lipase (sigma) in PBS plus 10 mM CaCl2 for a minimum of 5 h at 37° C.
Vagal calcium imaging. Each mouse was anaesthetized with ketamine (100 mg/kg) and xylazine (10 mg/kg). […] For glutamate receptor blocker experiments, a mixture of metabotropic glutamate receptor antagonist AP3 (2 mg/kg) and ionotropic glutamate receptor antagonist kynurenic acid (300 μg/kg) was used. CCKAR and glutamate receptor blockers were delivered both into the intestines and abdominal cavity; after a 5 min incubation period, the imaging session was started.
Calcium imaging data collection and analysis. […] Data was acquired at 5 Hz. A single field of view was chosen for recording and analysis from each ganglion. Calcium imaging data collected at 5 Hz was down-sampled by a factor of 2, and the images were stabilized using the NORMCorre algorithm. Motion-corrected movies were then manually segmented in ImageJ using the Cell Magic Wand plugin. Neuropil fluorescence was subtracted from each region of interest with the FISSA toolbox, and neural activity was denoised using the OASIS deconvolution algorithm. […] For experiments using blockers, two repeat trials per stimuli were used to accommodate the expanded time scale of the session (that is, before and after), and a neuron was considered a responder if it responded in both trials. The two-trial average area under curve for each stimulus was used to quantify the before and after responses (FIG. 12D, FIG. 12E). Imaging data is presented as heat maps of z-score-normalized responses.

cNST neurons = test: Fibre photometry of cNST activity in response to intestinal delivery of stimuli; format: in vivo, mice; conditions: Penk-Cre animals
Procedure: Fibre photometry. Vglut2-cre; Ai96 mice were placed in a stereotaxic frame and implanted with a 400 μm core, 0.48 NA optical fibre (Doric Lenses) 50-100 μm over the left cNST. […] To quantify the effects of vagotomy, the ratio of stimulus-related peak amplitude of the normalized trace was calculated (within 120 s of stimulus onset) prior vagotomy versus after vagotomy. […] Stimulus delivery was performed via a series of peristaltic pumps (BioChem Fluidics) operated via custom Matlab software and Arduino microcontroller. Stimuli and washes were delivered through separate lines that converged on a common perfusion manifold (Warner Instruments) connected to the duodenal catheter. Trials consisted of a 60-s baseline (PBS 200 μl/min), a 30 s stimulus (200 μl/min), and a 3-min washout period (150 s at 600 μl/min, and 30 s at 150 μl/min). Stimuli were each presented three times in an interleaved fashion.

cNST = test: Fos stimulation and histology, cNST; format: in vivo, mice; conditions: 90 min exposure; 20% Intralipid, 10% linoleic acid or 10% oleic acid vs xanthan gum / mineral oil controls
From the text: Separate cohorts of animals were exposed to 3 different lipid stimuli (Intralipid, linoleic acid, or oleic acid) and to fat-free textural controls (xanthan gum or mineral oil). […] The cNST is a nexus of interoceptive signals conveying information from the body to the brain via the gut-brain axis. If the fat-activated brain cNST neurons are receiving signals originating in the gut, then direct delivery of fat stimuli into the gut should also induce activation of the cNST. An intragastric catheter was implanted in the stomach and infused either a fat solution or a vehicle control. Intragastric infusion of fat, but not of a vehicle, is sufficient to activate the cNST as robustly as oral ingestion (FIG. 1E, FIG. 1F, FIG. 8J, FIG. 8K, FIG. 8L).
Fos stimulation and histology. Stimuli consisted of 20% Intralipid (sc215182, Santa Cruz Biotechnology), 10% linoleic acid, 10% oleic acid, 0.3% xanthan gum or 10% mineral oil. Stimuli were emulsified by dilution into milliQ water containing 0.1% xanthan gum and 0.05% Tween 80, and vortexed for a minimum of 10 min. […] Quantification of Fos labelling was carried out by recording the number of positive neurons in an equivalent 200×200 um area of the cNST (bregma—7.5 mm) and area postrema. […]

vagal neurons = test: CCK application in vagal calcium imaging; format: in vivo, mice; conditions: 1 μg/ml CCK, 60 s
From the text: Calcium imaging data collection and analysis. […] Data was acquired at 5 Hz.

For `CC1=CC(=O)[N-]S(=O)(=O)O1.[K+]` [AceK, acesulfame K], the “immediate attraction versus water” value (mice) was “strong innate attraction”.

For `CC/C=C\C/C=C\C/C=C\CCCCCCCC(=O)O` [alpha-linolenic acid], the “responding vagal neurons of imaged neurons” value (vagal sensory neurons) was 49/322.

With `CN1C(=O)[C@@H](NC(=O)c2cc3ccccc3[nH]2)N=C(c2ccccc2)c2ccccc21` [devazepide, Devazepide] the “cNST responses to intestinal fat stimulation after removing CCK-dependent signaling” value (cNST neurons; photometric recordings, n=5) was roughly 50% and the “cNST sugar-evoked responses after inhibiting signaling via the CCK dependent pathway” value (cNST neurons; photometric recordings, n=5) was “completely abolished”.

`CC/C=C\C/C=C\C/C=C\C/C=C\C/C=C\C/C=C\CCC(=O)O` [docosahexaenoic acid] was tested, and the “responding vagal neurons of imaged neurons” value (vagal sensory neurons) was 51/348.

With `CCCCCC(=O)O` [hexanoic acid] the “responding vagal neurons of imaged neurons” value (vagal sensory neurons) was 52/495.

With `CCCCC/C=C\C/C=C\CCCCCCCC(=O)O` [linoleic acid] the “Fos labelling in cNST upon ingestion” value (cNST) was “strong Fos labelling; also recorded: strong bilateral activation”, the “cNST neural responses to intestinal delivery” value (cNST neurons; 10% linoleic acid or 500 mM glucose, n=4 mice) was “robust, time-locked responses” and the “neurons that responded only to fat (fat-only responders)” value (vagal sensory neurons; 10% linoleic acid and 500 mM glucose, 10 s, 1813 neurons imaged, 22 vagal ganglia) was 153. For the same compound, the “TRPA1-expressing vagal neurons responding to fat” value (vagal sensory neurons; Trpa1-Cre, Ai162, 163 imaged neurons from 5 ganglia, 10% linoleic acid) was roughly 24%, the “subset of vagal neurons with evoked responses, % of GCaMP-expressing Vglut2 neurons” value (vagal sensory neurons; intestinal infusion, Vglut2-Cre animals) was 17% and the “vagal neuron responses to intestinal delivery” value (vagal sensory neurons; vs vehicle control (0.1% xanthan gum plus 0.05% Tween 80)) was “strong responses; also recorded: robust responses”.

In the case of `CCCCCCCC/C=C\CCCCCCCC(=O)O` [oleic acid], the “Fos labelling in cNST upon ingestion” value (cNST) is reported as “strong Fos labelling; also recorded: strong bilateral activation” and the “responding vagal neurons of imaged neurons” value (vagal sensory neurons) is reported as 39/418.

In the case of Cholecystokinin [CCK], the “activation of fat-only vagal neurons” value (vagal neurons) is reported as “not the fat-only vagal neurons”, the “activation of sugar/nutrient responding vagal neurons” value (vagal neurons) is reported as “all sugar/nutrient responders were activated; also recorded: also responded to CCK” and the “activation of sugar/nutrient responding vagal neurons” value (vagal neurons; listed as CCK peptide) is reported as “strongly activated”.
